As a reminder, the EC50 is the midpoint of the concentration-response curve.

For the assay, the target named is T1, CD80-CD28 interaction (Homo sapiens, UniProt P33681).
T1 construct: mouse Fab fragment (fusion partner)
T1 sequence (P33681 35-242 limits assumed): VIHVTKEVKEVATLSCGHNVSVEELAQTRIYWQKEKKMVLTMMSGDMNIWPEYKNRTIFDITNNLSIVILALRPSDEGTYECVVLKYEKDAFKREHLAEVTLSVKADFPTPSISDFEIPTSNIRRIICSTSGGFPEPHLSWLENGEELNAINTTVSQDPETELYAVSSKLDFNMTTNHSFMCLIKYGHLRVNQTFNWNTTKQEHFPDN
The experiment in a line: cell free Homogenous Time Resolved Fluorescence (HTRF) assay, inhibition of the CD80-CD28 interaction. In kind it is binding. The settings on record: 4 hours at room temperature, read-out: Activity (EC50 in summary form). As for the experimental part:
The examples described above were tested in a cell free Homogenous Time Resolved Fluorescence (HTRF) assay to determine their activity as inhibitors of the CD80-CD28 interaction.
In the assay, europium and allophycocyanin (APC) are associated with CD28 and CD80 indirectly (through antibody linkers) to form a complex, which brings the europium and APC into close proximity to generate a signal. The complex comprises the following six proteins: fluorescent label 1, linker antibody 1, CD28 fusion protein, CD80 fusion protein, linker antibody 2, and fluorescent label 2. The table below describes these reagents in greater detail.
On formation of the complex, europium and APC are brought into proximity and a signal is generated.
Non-specific interaction was measured by substituting a mouse Fab fragment (C215) for the CD80 mouse Fab fragment fusion protein (1.9 μg/ml). The assay was carried out in black 384 well plates in a final volume of 30 μl. Assay buffer: 50 mM Tris-HCl, 150 mM NaCl pH7.8, containing 0.1% BSA (w/v) added just prior to use.
Compounds were added to the above reagents in a concentration series ranging between 100 μM-1.7 nM. The reaction was incubated for 4 hours at room temperature. Dual measurements were made using a Wallac Victor 1420 Multilabel Counter. First measurement: excitation 340 nm, emission 665 nm, delay 50 μs, window time 200 μs. second measurement: excitation 340 nm, emission 615 nm, delay 50 μs, window time 200 μs. Counts were automatically corrected for fluorescence crossover, quenching and background.

SMILES strings stand for the structures.

Regarding `CN(C)CCCCNC(=O)c1ccc(-n2nc3c4cccc(F)c4[nH]cc-3c2=O)cc1Cl` [Example 110], the EC50 fell in the range of 1000 to 10000 nM.

`CN1CCN(C(=O)c2ccc(-n3nc4c5cccc(F)c5[nH]cc-4c3=O)cc2)CC1` [Example 111]: the EC50 was 1000 to 10000 nM.

As to `CC1CCCCN1CCCNC(=O)c1ccc(-n2nc3c4cccc(F)c4[nH]cc-3c2=O)cc1` (stereo not shown) [Example 112], the concentration for a half-maximal effect (EC50) was below 1000 nM.

Turning to `O=C(NCCN1CCOCC1)c1ccc(-n2nc3c4cccc(F)c4[nH]cc-3c2=O)cc1` [Example 113], the concentration for a half-maximal effect (EC50) is below 1000 nM.

Regarding `CCN1CCCC1CNC(=O)c1ccc(-n2nc3c4cccc(F)c4[nH]cc-3c2=O)cc1` (stereo not shown) [Example 114], the EC50 was below 1000 nM. The figure for `CN1C(C)(C)CC(NC(=O)c2ccc(-n3nc4c5cccc(F)c5[nH]cc-4c3=O)cc2)CC1(C)C` [Example 115] is below 1000 nM; for `O=C(NC1CCN(Cc2ccccc2)CC1)c1ccc(-n2nc3c4cccc(F)c4[nH]cc-3c2=O)cc1` [Example 116] it is below 1000 nM; for `CN(C)CC(C)(C)CNC(=O)c1ccc(-n2nc3c4cccc(F)c4[nH]cc-3c2=O)cc1` [Example 117] it is below 1000 nM. To `CC1(C)CC(NC(=O)c2ccc(-n3nc4c5cccc(F)c5[nH]cc-4c3=O)cc2)CC(C)(C)N1` [Example 118] belongs below 1000 nM; to `O=C(NCCc1cccnc1)c1ccc(-n2nc3c4cccc(F)c4[nH]cc-3c2=O)cc1` [Example 119], 1000 to 10000 nM; to `CCSCCNC(=O)c1ccc(-n2nc3c4cccc(F)c4[nH]cc-3c2=O)cc1` [Example 120], below 1000 nM. The figure for `O=C(NCCCN1CCCC1=O)c1ccc(-n2nc3c4cccc(F)c4[nH]cc-3c2=O)cc1` [Example 121] is 1000 to 10000 nM; for `O=C(NCCCn1ccnc1)c1ccc(-n2nc3c4cccc(F)c4[nH]cc-3c2=O)cc1` [Example 122] it is below 1000 nM; for `O=C(NC1CCCCNC1=O)c1ccc(-n2nc3c4cccc(F)c4[nH]cc-3c2=O)cc1` (stereo not shown) [Example 123] it is 1000 to 10000 nM. In the case of `CCN(CC)CCCCNC(=O)c1ccc(-n2nc3c4cccc(F)c4[nH]cc-3c2=O)cc1` [Example 124], the 50% effective concentration (EC50) was below 1000 nM. The figure for `O=C(NC1CCN(Cc2ccccc2)CC1)c1ccc(-n2nc3c4cccc(F)c4[nH]c(C4CC4)c-3c2=O)cc1` [Example 125] is below 1000 nM; for `O=C(NCCc1ccccn1)c1ccc(-n2nc3c4cccc(F)c4[nH]cc-3c2=O)cc1` [Example 127] it is above 10000 nM. The figure for `CSCCCNC(=O)c1ccc(-n2nc3c4cccc(F)c4[nH]cc-3c2=O)cc1` [Example 128] is 1000 to 10000 nM. Turning to `CN1C(C)(C)CC(NC(=O)c2ccc(-n3nc4c5ccccc5[nH]c(C5CC5)c-4c3=O)cc2)CC1(C)C` [Example 129], the EC50 was below 1000 nM.

For `O=C(NCCCCN1CCCC1)c1ccc(-n2nc3c4cccc(F)c4[nH]c(C4CC4)c-3c2=O)cc1` [Example 130], the concentration for a half-maximal effect (EC50) was below 1000 nM.

With `CN1C2CCC1CC(NC(=O)c1ccc(-n3nc4c5cccc(F)c5[nH]cc-4c3=O)cc1)C2` (stereo not shown) [Example 131], the EC50 was below 1000 nM. The figure for `CN(C)CCCNC(=O)c1ccc(-n2nc3c4cccc(F)c4[nH]c(C4CC4)c-3c2=O)cc1` [Example 132] is below 1000 nM; for `CN1C2CCC1CC(NC(=O)c1ccc(-n3nc4c5cccc(F)c5[nH]c(C5CC5)c-4c3=O)cc1)C2` (stereo not shown) [Example 134] it is below 1000 nM. The figure for `CCN(CC)CCCCNC(=O)c1ccc(-n2nc3c4cccc(F)c4[nH]c(C4CC4)c-3c2=O)cc1` [Example 135] is below 1000 nM; for `CC(C)(C)OC(=O)N1CCC(NC(=O)c2ccc(-n3nc4c5cccc(F)c5[nH]c(C5CC5)c-4c3=O)cc2)CC1` [Example 136] it is 1000 to 10000 nM. The figure for `O=C(NCCCN1CCN(Cc2c(F)cccc2Cl)CC1)c1ccc(-n2nc3c4cccc(F)c4[nH]c(C4CC4)c-3c2=O)cc1` [Example 137] is below 1000 nM; for `O=C(NCCc1ccccn1)c1ccc(-n2nc3c4cccc(F)c4[nH]c(C4CC4)c-3c2=O)cc1` [Example 138] it is 1000 to 10000 nM. Consider `O=C(NCCc1cccnc1)c1ccc(-n2nc3c4cccc(F)c4[nH]c(C4CC4)c-3c2=O)cc1` [Example 139], for which the EC50 was above 10000 nM. The figure for `CN(C)CC(C)(C)CNC(=O)c1ccc(-n2nc3c4cccc(F)c4[nH]c(C4CC4)c-3c2=O)cc1` [Example 140] is below 1000 nM; for `O=C(NCCCN1CCCC1)c1ccc(-n2nc3c4cccc(F)c4[nH]c(C4CC4)c-3c2=O)cc1` [Example 141] it is below 1000 nM; for `CCOC(=O)CNC(=O)Nc1ccc(-n2nc3c4cccc(F)c4[nH]cc-3c2=O)cc1` [Example 142, {3-[4-(6-Fluoro-3-oxo-3,5-dihydro-pyrazolo[4,3-c]quinolin-2-yl)-phenyl]-ureido} acetic acid ethyl ester] it is below 1000 nM. To `CCCNC(=O)Nc1ccc(-n2nc3c4cccc(F)c4[nH]cc-3c2=O)cc1` [Example 145] belongs below 1000 nM; to `CC(C)(C)NC(=O)Nc1ccc(-n2nc3c4cccc(F)c4[nH]cc-3c2=O)cc1` [Example 146], below 1000 nM. The figure for `O=C(Nc1ccccc1)Nc1ccc(-n2nc3c4cccc(F)c4[nH]cc-3c2=O)cc1` [Example 147] is 1000 to 10000 nM; for `O=c1c2c[nH]c3c(F)cccc3c-2nn1-c1ccc(NC(=S)NC2CC2)cc1` [Example 148] it is 1000 to 10000 nM; for `O=c1c2c[nH]c3c(F)cccc3c-2nn1-c1ccc(NC(=S)NC2CCCCC2)cc1` [Example 149] it is above 10000 nM. For `CC(C)(C)OC(=O)Nc1ccc(-n2nc3c4cccc(F)c4[nH]cc-3c2=O)cc1` [Example 150], the 50% effective concentration (EC50) was below 1000 nM. To `CCOC(=O)Nc1ccc(-n2nc3c4cccc(F)c4[nH]cc-3c2=O)cc1` [Example 151] belongs 1000 to 10000 nM; to `CN(C)CCOC(=O)Nc1ccc(-n2nc3c4cccc(F)c4[nH]cc-3c2=O)cc1` [Example 152], below 1000 nM; to `COC(=O)Nc1ccc(-n2nc3c4ccccc4[nH]c(C4CC4)c-3c2=O)cc1` [Example 153], 1000 to 10000 nM.

For `CN(C)CCCOC(=O)Nc1ccc(-n2nc3c4cccc(F)c4[nH]cc-3c2=O)cc1` [Example 154], the EC50 was below 1000 nM. Take `O=C(Nc1ccc(-n2nc3c4cccc(F)c4[nH]cc-3c2=O)cc1)OC1CCN(Cc2ccccc2)CC1` [Example 155]: the EC50 was in the range of 1000 to 10000 nM. As to `CCCCCNC(=S)Nc1ccc(-n2nc3c4cccc(F)c4[nH]cc-3c2=O)cc1` [Example 156], the concentration giving a half-maximal response (EC50) lay within 1000 to 10000 nM. The figure for `CC(C)C(C)NC(=S)Nc1ccc(-n2nc3c4cccc(F)c4[nH]cc-3c2=O)cc1` (stereo not shown) [Example 157] is 1000 to 10000 nM; for `CCN(CC)CCCCNC(=O)Nc1ccc(-n2nc3c4cccc(F)c4[nH]cc-3c2=O)cc1` [Example 158] it is below 1000 nM; for `CCCNC(=O)Nc1ccc(-n2nc3c4ccccc4[nH]cc-3c2=O)cc1` [Example 159] it is below 1000 nM.

Regarding `O=c1c2c[nH]c3ccccc3c-2nn1-c1ccc(NC(=S)NC2CC2)cc1` [Example 160], the concentration for a half-maximal effect (EC50) lay within 1000 to 10000 nM. To `CN(C)CCCNC(=O)Nc1ccc(-n2nc3c4cccc(F)c4[nH]cc-3c2=O)cc1` [Example 161] belongs below 1000 nM; to `COC(=O)[C@@H](NC(=O)Nc1ccc(-n2nc3c4ccccc4[nH]cc-3c2=O)cc1)C(C)C` [Example 162], below 1000 nM.

Values taken from patent US7291612B2, “Immunomodulatory compounds” (Active Biotech A.B., priority 2002, dated 2007).
